Test results taken from patent US20240299367A1, “METHODS OF TREATING ACUTE RESPIRATORY DISTRESS SYNDROME WITH ACTIVATORS OF TIE-2” (AERPIO PHARMACEUTICALS, INC., priority 2020, published 2024).
Read-outs that look alike come from different tables or passages of the source.

Assays:
HPTPβ = HPTPβ (Homo sapiens (Human), UniProt P23467); experiment: HPTPβ inhibitory activity (IC50); assay type: biochemical
[1] = test system: SARS-COV, MERS-COV, and SARS-CoV-2; conditions: cell culture and animal models; cited from earlier work
[2] = 0.9% saline, cited from earlier work
[3] = test system: polymicrobial septic shock; experiment: Cecal ligation and puncture (CLP) model of sepsis, survival; assay type: in vivo, Sprague Dawley rats; conditions: rats, SC BID days 1-5, monitored 10 days, Cpd 1 10 mg/kg, IM 20 mg/kg
[4] = Urine albumin/creatinine ratio (UACR) in Phase 2 and Phase 2b studies; assay type: in vivo, human; conditions: Phase 2, patients with evidence of diabetic nephropathy

Sequence of HPTPβ (P23467 23-1997): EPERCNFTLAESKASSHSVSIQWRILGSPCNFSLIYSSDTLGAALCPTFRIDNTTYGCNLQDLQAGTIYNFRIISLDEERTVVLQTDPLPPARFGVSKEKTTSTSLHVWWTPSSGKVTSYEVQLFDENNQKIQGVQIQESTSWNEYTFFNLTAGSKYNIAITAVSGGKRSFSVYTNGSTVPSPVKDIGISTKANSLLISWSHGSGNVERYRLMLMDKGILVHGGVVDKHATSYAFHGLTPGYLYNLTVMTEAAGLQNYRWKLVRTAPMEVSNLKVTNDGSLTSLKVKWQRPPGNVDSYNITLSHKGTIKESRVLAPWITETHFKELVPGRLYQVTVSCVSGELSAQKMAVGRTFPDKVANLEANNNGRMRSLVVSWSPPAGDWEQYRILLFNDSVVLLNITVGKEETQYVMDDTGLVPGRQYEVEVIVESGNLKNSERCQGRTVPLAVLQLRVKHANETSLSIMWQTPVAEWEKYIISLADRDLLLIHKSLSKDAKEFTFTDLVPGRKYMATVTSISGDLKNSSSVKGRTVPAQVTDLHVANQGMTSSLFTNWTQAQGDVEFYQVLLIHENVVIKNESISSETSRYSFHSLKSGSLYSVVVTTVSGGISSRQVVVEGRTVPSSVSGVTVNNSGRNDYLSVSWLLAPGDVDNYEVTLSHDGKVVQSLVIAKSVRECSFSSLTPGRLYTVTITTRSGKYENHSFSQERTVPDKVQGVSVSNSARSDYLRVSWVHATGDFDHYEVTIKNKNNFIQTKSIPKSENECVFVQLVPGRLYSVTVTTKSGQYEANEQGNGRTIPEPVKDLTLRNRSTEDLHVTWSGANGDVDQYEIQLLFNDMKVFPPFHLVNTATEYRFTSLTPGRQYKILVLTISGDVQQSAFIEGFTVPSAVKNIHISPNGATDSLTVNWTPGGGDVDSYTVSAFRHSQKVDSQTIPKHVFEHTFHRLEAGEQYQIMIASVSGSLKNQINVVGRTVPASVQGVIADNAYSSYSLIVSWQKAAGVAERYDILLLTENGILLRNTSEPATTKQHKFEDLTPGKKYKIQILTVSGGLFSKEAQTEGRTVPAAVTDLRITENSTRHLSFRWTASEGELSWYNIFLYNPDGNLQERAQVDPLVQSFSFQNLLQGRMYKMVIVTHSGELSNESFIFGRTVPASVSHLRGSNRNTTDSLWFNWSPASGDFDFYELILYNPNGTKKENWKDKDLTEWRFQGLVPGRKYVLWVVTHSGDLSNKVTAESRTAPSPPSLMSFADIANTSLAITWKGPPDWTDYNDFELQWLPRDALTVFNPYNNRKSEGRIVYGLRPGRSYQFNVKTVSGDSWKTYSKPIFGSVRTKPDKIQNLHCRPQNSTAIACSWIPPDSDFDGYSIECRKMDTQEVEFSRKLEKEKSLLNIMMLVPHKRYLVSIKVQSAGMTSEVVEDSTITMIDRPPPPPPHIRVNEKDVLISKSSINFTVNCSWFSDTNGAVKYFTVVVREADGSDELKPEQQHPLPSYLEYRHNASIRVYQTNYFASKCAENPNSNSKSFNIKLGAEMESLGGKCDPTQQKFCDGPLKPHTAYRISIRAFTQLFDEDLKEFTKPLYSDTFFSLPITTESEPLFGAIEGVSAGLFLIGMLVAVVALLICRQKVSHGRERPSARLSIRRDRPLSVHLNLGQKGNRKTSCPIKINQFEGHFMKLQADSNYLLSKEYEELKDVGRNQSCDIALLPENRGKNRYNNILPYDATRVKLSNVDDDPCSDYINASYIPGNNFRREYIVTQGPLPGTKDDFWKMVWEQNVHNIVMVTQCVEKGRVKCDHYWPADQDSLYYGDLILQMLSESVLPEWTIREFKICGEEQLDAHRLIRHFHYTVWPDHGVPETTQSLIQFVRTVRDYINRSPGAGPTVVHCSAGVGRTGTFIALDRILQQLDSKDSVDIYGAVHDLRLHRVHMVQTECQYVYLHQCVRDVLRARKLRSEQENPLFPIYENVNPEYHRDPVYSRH

For `Cc1nc([C@H](Cc2ccc(NS(=O)(=O)O)cc2)NC(=O)OC(C)(C)C)cs1` [AA64], which IC50 (HPTPβ) is on record?
The IC50 was 33 nM.

For `CCC(CC)COC(=O)[C@H](C)N[P@](=O)(OC[C@H]1O[C@@](C#N)(c2ccc3c(N)ncnn23)[C@H](O)[C@@H]1O)Oc1ccccc1` [Remdesivir], which antiviral activity [1] is on record?
The antiviral activity was “exhibits activity in cell culture and animal models”.

What about the “storage time of diluted solution” value ([2]; refrigerated (2° C. to 8° C.)) of the same molecule?
The value was 24 h.

What about the “storage time of diluted solution” value ([2]; room temperature (20° C. to 25° C.)) of the same molecule?
Its value is “up to 4 hours”.

For `COC(=O)Cc1csc([C@H](Cc2ccc(NS(=O)(=O)O)cc2)NC(=O)OC(C)(C)C)n1` [AA70, (S)-4-(2-(tert-Butoxycarbonyl)-2-(4-(2-(2-methoxy-2-oxoyethylamino)-2-oxoethyl)thiazole-2-yl)ethyl)phenylsulfamic acid], which IC50 (HPTPβ) is on record?
Its IC50 is 132 nM.

Which survival [3] does the source give for `C[C@@H](O)[C@H]1C(=O)N2C(C(=O)O)=C(SCCN=CN)C[C@H]12` [IM, imipenem] here?
Its survival is 81%.

B1: ranibizumab (antibody, chains of the INN, looked up, V domains shown)
VH: EVQLVESGGGLVQPGGSLRLSCAASGYDFTHYGMNWVRQAPGKGLEWVGWINTYTGEPTYAADFKRRFTFSLDTSKSTAYLQMNSLRAEDTAVYYCAKYPYYYGTSHWYFDVWGQGTLVTVSS
VL: DIQLTQSPSSLSASVGDRVTITCSASQDISNYLNWYQQKPGKAPKVLIYFTSSLHSGVPSRFSGSGSGTDFTLTISSLQPEDFATYYCQQYSTVPWTFGQGTKVEIK
modifications: Fab
notes: anti-VEGF agent, standard-of-care intravitreal injection
For B1, which UACR change [4] is on record?
Its UACR change is “increase”.
